# Results as given in patent publication US11446253B2, “Ionic liquids for internal delivery” (priority 2017, dated 2022).
# Values joined by “and” are separate entries in the source; they are usually repeats but may differ in a detail not shown here. Equal entries are not always repeated.
# How the values were obtained:
# bovine trypsin = molecular target: T1, bovine trypsin (Bos taurus, UniProt P00760); test: Trypsin-mediated degradation of insulin (LC-MS); type: biochemical; settings: incubated with trypsin, 37° C., 24 h
# T1 construct: purchased MP Biomedicals (Santa Ana, Calif., USA)
# T1 sequence (P00760 24-246): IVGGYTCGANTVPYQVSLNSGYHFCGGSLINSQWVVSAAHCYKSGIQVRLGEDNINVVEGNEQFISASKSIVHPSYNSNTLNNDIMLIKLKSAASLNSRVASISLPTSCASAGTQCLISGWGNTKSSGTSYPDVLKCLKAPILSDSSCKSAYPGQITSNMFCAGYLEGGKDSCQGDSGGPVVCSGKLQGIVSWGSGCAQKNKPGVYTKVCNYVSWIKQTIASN
# Experimental: Immediately after vortex (time=0 h; t0) and at predetermined time intervals, 0.1 mL of the insulin-trypsin mixture was aliquoted, and the enzyme activity was inhibited by the addition of 0.1 mL of ice-cold 0.1% trifluoroacetic acid/acetonitrile solution (69:31, v/v). The samples were analyzed by liquid chromatography-mass spectrometry (LC-MS) to determine the amount of intact insulin in the solution at different times. An Agilent 1290/6140 Ultra High Performance Liquid Chromatography/Mass Spectrometer consisting of a 1290 Infinity LC™ binary pump, thermostat column compartment, 1290 Infinity autosampler, an Agilent 1290 diode array detector and an Agilent 6140 quadrupole MSD system was used for the analyses. For an analysis, 3 μL of the samples were injected into an Agilent 300SB-C18 2.1×75 mm, 5 μm, maintained at 25° C. and eluted with a mobile phase consisting of a gradient mixture of deionized water with 0.1% formic acid (FA) (A) and acetonitrile (B) with 0.1% FA. A gradient of 95-5% (0 min), 0-100% (10 min), 0-100% (15 min), 95-5% (15.1 min), 95-5% (18 min) A:B was used for each run. […] All experiments were conducted in triplicate and are reported are mean±standard deviation.
# [1] = tested on: non-diabetic male Wistar rats; test: Blood glucose lowering after intrajejunal administration; type: in vivo, rat
# Experimental: Before the start of the study, the rats were anesthetized, abdominal hair clipped and the area prepped for surgery using 70% ethanol and betadine. An incision was made in the abdomen to expose the intestine. […] Each formulation was tested in 6 rats with the exception of saline which was tested in only 3 rats. Thereafter, intestinal section was placed back into the abdomen and the muscle and skin sutured. Blood glucose was determined using a commercial glucose meter in the beginning and at every 0.5 h till the end of study at 5 h. The animals remained anesthetized throughout the study, at the end of which they were euthanized and the intestinal section around the injection site was removed for further histological examination to determine toxicity, if any. […] The results were plotted as % change in blood glucose levels with respect to initial reading at t=0 vs time.
# Before the start of the study, the rats were anesthetized, abdominal hair clipped, and the surgery area was prepped using 70% ethanol and betadine. An incision was made in the abdomen to expose the intestine. […] The time zero blood glucose was taken after the intestine was exposed i.e. immediately prior to the injections. Each formulation was tested in 6 rats with the exception of saline which was tested in only 3 rats. Thereafter, intestinal section was placed back into the abdomen and the muscle and skin sutured. Blood glucose was determined using a commercial glucose meter at the beginning and at every 0.5 h till the end of study at 5 h. Loss in body temperature in the animals during anesthesia was prevented by placing the animals on temperature controlled warming pads prior to surgery followed by additional towel cover after surgery. The animals remained anesthetized throughout the study and were euthanized after 5 h. At the end of study at 5 h, the intestinal section around the injection site was removed for further histological examination to determine toxicity, if any. […] The results were plotted as % change in blood glucose levels with respect to initial reading vs time. In addition, the saline group was considered as fasting control and graphs were plotted after subtracting blood glucose levels of the saline group.
# [2] = Serum insulin pharmacokinetics (human insulin ELISA); settings: for AUCtotal: insulin-CAGE 5 U/kg intrajejunal, insulin 2 U/kg subcutaneous
# Experimental: Standard protocol was followed for separation of serum from whole blood. Briefly, the blood samples were left undisturbed at RT for 15-30 minutes to allow clot formation, followed by centrifugation at 2,000 g for 10 minutes.
# Fasting prior to anti-diabetic efficacy studies is routinely done (29, 62, 63). It helps avoid fluctuations in the blood glucose levels as a result of eating, which can vary between animals based on the amount and time of food intake. All animal experiments were performed in accordance with the University of California Santa Barbara animal care committee guidelines and to the Guide for the Care and Use of Animals of the Institute of Laboratory Animal Resources, National Research Council. […] The time zero blood glucose was taken after the intestine was exposed i.e. immediately prior to the injections. […] Loss in body temperature in the animals during anesthesia was prevented by placing the animals on temperature controlled warming pads prior to surgery followed by additional towel cover after surgery. The animals remained anesthetized throughout the study and were euthanized after 5 h. […] In addition, the saline group was considered as fasting control and graphs were plotted after subtracting blood glucose levels of the saline group. […] Standard protocol was followed for separation of serum from whole blood. Briefly, blood samples were left undisturbed at RT for 15-30 minutes to clot, followed by centrifugation at 2,000 g for 10 minutes. […] Pharmacodynamic bioavailability was calculated using AUC obtained from efficacy plots.
# Caco-2 monolayers = test: FITC-insulin transport across Caco-2 monolayers; type: cell-based, human; settings: Caco-2 monolayers, end of study at 5 h, 10 mM CAGE or saline
# Experimental: TEER was measured on a regular basis and when it reached above 200 ohms·cm^2, indicating sufficient tight junction integrity between cells, transport study was performed.
# (§1) After the end of study at 5 h, the FITC-insulin concentration in the aliquots were measured using a plate reader (Tecan, Infinite M1000, Mannedorf, Switzerland) at 495/520 nm excitation/emission wavelengths and plotted as % FITC-insulin transport vs time. Furthermore, TEER was measured at every time point when aliquots were withdrawn from the transwells and plotted as % change from initial value vs time.
# TEER was measured on a regular basis and when it reached above 200 ohms. cm2, indicating sufficient tight junction integrity between cells, transport study was performed.
# as §1, with “[…]” for “% change from initial value”
# [3] = tested on: non-diabetic male Wistar rats; test: Blood glucose lowering after oral administration in enterically coated capsules; type: in vivo, rat
# Experimental: (§2) For the oral efficacy study, adult non-diabetic male Wistar rats were fasted overnight but given free access to water. On the next day, the capsules were administered to the rats using an oral gavage followed by subcutaneous administration of 5 mg/kg metoclopramide HCl to promote gastric emptying. Blood glucose was thereafter measured using a commercial glucose meter and subsequently every hour till 12 h. Rats were fasted throughout the period of study. […] In addition, the efficacy of subcutaneously injected 2 U/kg insulin-saline was also evaluated. […] The results were plotted as percent change in blood glucose level vs time.
# as §2, with “To determine the efficacy of insulin-CAGE administered through the oral route, elongated size 9 capsules were used. […] Following this, the capsules were enterically coated three times with 12.5% w/v Eudragit® L-100 dissolved in isopropanol. For” for “For”, “Next” for “On the next”, “was” for “was also”, “time. […] After 12 h of study, rats were euthanized, and small intestinal sections were collected for tissue histology.” for “time.”
# [4] = tested on: non-diabetic male Wistar rats; test: In vivo bioactivity of insulin isolated from CAGE after storage; design: species or system rat; settings: fresh, 1 U/kg subcutaneous, listed as Freshly prepared insulin solution
# Excerpt: Prior to insulin injections, rats were fasted overnight but given free access to water and fasting continued throughout the study to eliminate variability in blood glucose due to food consumption. The results were plotted as % change in blood glucose compared to initial level vs time.
# [5] = stored at 4° C.; cited from earlier work
# Caco-2 cells = test: Tight junction integrity (TEER) in Caco-2 cells; type: cell-based, human; settings: FITC-insulin with 10 mM CAGE or saline, 5 h
# Experimental: […] Furthermore, TEER was measured at every time point when aliquots were withdrawn from the transwells and plotted as % change from initial value vs time.
# TEER values were recorded for each insert. […] TEER was plotted as % change from initial value vs time.
# Non-diabetic Wistar rats = test: Consecutive oral dosing of neat CAGE capsule and insulin capsule; type: in vivo, rat; settings: 10 U/kg insulin oral, 10 h
# Experimental: Non-diabetic Wistar rats were fasted overnight for 8 h but given access to water ad libitum. […] The blood glucose for time 0 was evaluated at this point. […] Fasting was continued with free access to water till the end of study at 12 h and blood glucose was evaluated at various time points. The results were plotted as % change in blood glucose compared to initial level vs time.
substance,measurement,setting,value
"insulin: human insulin (Sigma-Aldrich) in saline or buffer, comparator",intact insulin remaining,bovine trypsin,5±0.4%
same,"blood glucose, % of initial level","[1]; 2 U/kg subcutaneous, 1 h",48.76±7.55% and 49±8%
same,maximum drop in blood glucose,"[1]; 2 U/kg subcutaneous, 1 h",51%
same,"blood glucose, % of initial level","[1]; 2 U/kg subcutaneous, 5 h",101.61±6.69% and 101±7%
same,"decrease in blood glucose of control groups, % of initial level","[1]; intrajejunal controls (neat CAGE, 3 U/kg insulin-saline), 5 h",about 25%
same,serum insulin concentration,[2]; 3 U/kg intrajejunal,hardly increased
same,serum insulin level with time,[2]; 5 U/kg intrajejunal,did not show any increase
same,AUCtotal,[2]; Table 1,237.6 μIU · h/ml
same,AUCtotal,[2]; Table 2,237.6 μIU · h/mL
same,FITC-insulin transport,Caco-2 monolayers,10%
same,"blood glucose, % of initial level","[3]; 2 U/kg subcutaneous, 1 h",51.43±5.25% and 51±5%
same,drop in blood glucose,"[3]; 2 U/kg subcutaneous, 1 h",50% and 49%
same,decrease in blood glucose of formulation controls,"[3]; oral controls, 12 h",about 25%
same,"blood glucose, % of initial level",[4]; 1 h,50.73±2.47% and 51±2%
same,drop in blood glucose,[4]; 1 h,50% and 49%
same,"blood glucose, % of initial level",[4]; 2 h,49.59±4.4% and 50±4%
same,"blood glucose, % of original level",[4]; 5 h,92.05±4.8% and 92±5%
same,stability at 4° C.,[5],2 to 7 days
same,"TEER, % of initial value",Caco-2 cells,98.5±2.64%
same,blood glucose drop,Non-diabetic Wistar rats,around 34%
same,"blood glucose, % of initial levels",Non-diabetic Wistar rats,66.9±7.1%
